The target in the test is T1, BMPR1B (ALK6) (Homo sapiens, UniProt O00238).
T1 construct: purchased Thermo Fisher Scientific (Life Technologies) SelectScreen
Description: SelectScreen LanthaScreen. It is filed as binding. The settings on record: read-out: % displacement. The essentials: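 NU5455 was profiled across the SelectScreen Broad panel of kinase activity and binding assays. Z'LYTE reactions such as CSF1R ran at apparent Km ATP, while the Adapta CAMK1 assay used ATP listed as 10. Values are given as percent.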

The structures appear in SMILES notation.

T1 sequence (O00238 14-502): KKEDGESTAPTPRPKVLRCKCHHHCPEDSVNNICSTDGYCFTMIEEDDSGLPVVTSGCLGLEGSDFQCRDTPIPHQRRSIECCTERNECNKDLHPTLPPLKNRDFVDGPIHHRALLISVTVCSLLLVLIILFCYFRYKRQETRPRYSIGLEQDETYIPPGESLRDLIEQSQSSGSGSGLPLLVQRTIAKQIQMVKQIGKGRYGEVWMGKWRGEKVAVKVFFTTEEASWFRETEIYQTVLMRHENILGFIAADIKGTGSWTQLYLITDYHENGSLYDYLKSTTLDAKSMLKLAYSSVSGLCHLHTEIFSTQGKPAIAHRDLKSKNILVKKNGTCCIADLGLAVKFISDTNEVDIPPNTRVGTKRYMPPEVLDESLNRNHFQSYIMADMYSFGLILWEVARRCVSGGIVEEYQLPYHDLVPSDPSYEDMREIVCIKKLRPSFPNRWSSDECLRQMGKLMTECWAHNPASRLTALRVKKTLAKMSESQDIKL

Consider `CN(C(=O)CN1CCOCC1)c1ccc2sc3c(-c4cccc5c(=O)cc(N6CC7CCC(C6)O7)oc45)cccc3c2c1` [NU5455], for which the inhibition at 1 µM came out at 14.5%.

The record behind these values is publication PMC6934184, “Selective DNA-PKcs inhibition extends the therapeutic index of localized radiotherapy and chemotherapy” (The Journal of Clinical Investigation, 2019).
